Patent publication US9446024B2, “Formulations for the treatment of vaginal disorders” (Mission Pharmacal Company, priority 2013, dated 2016)

Legend:
Assay in all cases: MIC determination, agar dilution
Format in all cases: cell-based
Mobiluncus curtisii = settings: each identified strain
Lactobacillus crispatus = settings: non-reference strain
Lactobacillus jensenii = settings: each identified strain
Lactobacillus gasseri = settings: each identified strain
Lactobacillus vaginalis = settings: Limosilactobacillus vaginalis; each identified strain
Lactobacillus iners = settings: each identified strain

MIC (Mobiluncus curtisii): > 150 µg/mL
MIC (Lactobacillus jensenii): > 150 µg/mL
MIC (Lactobacillus gasseri): > 150 µg/mL
MIC (Lactobacillus vaginalis): > 150 µg/mL
MIC (Lactobacillus iners): > 150 µg/mL
Compound: CCS(=O)(=O)CCn1c([N+](=O)[O-])cnc1C [tinidazole]
growth inhibition at the highest concentration tested (Lactobacillus crispatus): unaffected
